Results reported in patent US11739051B2 (ALEXION PHARMA INTERNATIONAL OPERATIONS UNLIMITED COMPANY, priority 2018, dated 2023).

Tests used:
WD patients = details: once daily dosing in WD patients; cited from earlier work
[1] = Crystallinity by X-ray powder diffraction (XRPD); type: physicochemical
Description: Crystallinity was analyzed by X-ray powder diffraction (XRPD) using a Cu-anode (45 kV/40 mA), a Kα-1 monochromator and silicon-based position-sensitive 1D detector (Malvern Panalytical, X'Celerator™). The 2-theta range was 2-35° using a scan speed of 0.02°/s and a step size of 0.017°. Slow spinning sample holders were used. […] Each sample was smeared out using a Teflon bar, producing a flat powdered surface on zero background wafers of silicon (Si). The measurements were performed using a programmable incident divergence slit.
The crystallinity was evaluated using Panalytical HighScore Plus™ software (The HighScore suite; T. Degen, M. Sadki, E. Bron, U. König, G. Nénert; Powder Diffraction, Volume 29, Supplement S2, December 2014, pp S13-S18). This method is based on the following steps: 1) Calculation of the net area of the signals from the crystalline part of the sample. This area is defined as “AREAcryst.” 2) Calculation of the net total area, that is, area from the amorphous “humps” plus the net peak area from step 1. This area is defined as “AREAtotal.” In the calculation of above areas, an automatic correction of the background is made by using data collected for an empty sample holder. 3) The percent crystallinity of the sample is calculated as: (AREAcryst/AREAtotal)*100.
XRPD crystallinity results for each batch are reported Table 1.

[2] = Stability of crystalline particles after forced degradation at 40° C. and 75% relative humidity (HPLC impurities); type: physicochemical
Description: Stability analysis was performed on crystalline particles after forced degradation at 40° C. and 75% relative humidity over 3 days.

[3] = Specific surface area (SSA) by BET; type: physicochemical; details: N2 adsorption
Description: As used herein, the ten “SSA (m^2/g)” refers to specific surface area (SSA) measured in square meters (m^2) per gram (g). SSA was measured by BET according to the method described in Example 4.
Specific Surface Area (SSA) was analyzed by BET on a surface area analyzer (Gemini 2375™ from Micromeritics Instrument Corp.). […] Each sample was filled into a glass tube and “degassed” at 30° C. for 1 h under continuous N2 (g) flow in order to remove all loosely bound molecules on the external surface and from potential channels in the material. Simultaneously, the saturation pressure for the liquid nitrogen used was determined. After weighing the degassed samples, the degassed samples were inserted into the measuring position at −196° C. (boiling point for liquid nitrogen), evacuated and then exposed to a range of partial pressures basically covering the whole range from almost zero to close to 1 under adsorption mode. The lower pressures were used for SSA determination. Higher pressures were used for potential micro pore determination. In order to ascribe the right amount of nitrogen to the substances, the free volume in the tubes was measured with helium gas prior to nitrogen adsorption. The appropriate thickness values for the adsorbed layer (above the point where no absorption took place in micro pores anymore) was determined from a t-plot and subsequently used to correct the calculation by separating the adsorbed nitrogen molecules into either absorbed into potential pore like structures (the “micro pore volume”) or adsorbed onto actual external surface.

[4] = Particle size distribution (PSD) by LALLS; type: physicochemical; details: for Dx (10)/μm: 10th percentile of particle size, paraffin oil dispersion; for Dx (50)/μm: 50th percentile of particle size; for Dx (90)/μm: 90th percentile of particle size; for >100 μm (%): percentage of particles greater than 100 μm; for <2 μm (%): percentage of particles less than 2 μm
Excerpt: As used herein, the term “Dx(10)/μm” refers to the 10th percentile of particle size (D10) measured in micrometers (μm). As used herein, the terms “Dx(50)/μm” or “median particle size” refer to the 50th percentile particle size (D50). As used herein, the term “Dx(90)/μm” refers to the 90th percentile of particle size (D90).
As used herein, the term “<2 μm (%)” refers to the percentage (%) of particles that are less than 2 μm. As used herein, the term “>100 μm (%)” refers to the percentage (%) of particles that are greater than 100 μm. As used herein, the percentage of particles refers to the percentage based on the population, or number, of particles.
The sample dispersion medium was paraffin oil. […] This was repeated until a stable reading was obtained.
The PSD measurements were done using the following settings: background measurement time, 20 seconds(s); sample measurement time, 20 s; dispersant refractive index, 1.45; particle refractive index, N/A (Fraunhofer), absorption, N/A (Fraunhofer); stirrer speed, 2500 rpm; analysis model: general purpose.

[5] = Day 3, 40° C. / 75% RH, listed as B-3
[6] = Day 3, 40° C. / 75% RH, listed as A-2
[7] = Day 3, 40° C. / 75% RH, listed as B-4

Bis-choline tetrathiomolybdate [BC-TTM]
Cu control and improvement of hepatic function (WD patients): demonstrated to provide Cu control and improvement of hepatic function

bis-choline tetrathiomolybdate [Batch B-3]
Estimated Crystallinity (%) ([1]; AREAcryst/AREAtotal*100, listed as B-3): 95%
Mo2S6O2 dimer (area %) ([2]; Day 1, 40° C. / 75% RH, listed as B-3): <0.05 area %
Mo2S6O2 dimer (area %) ([2]; Day 2, 40° C. / 75% RH, listed as B-3): 0.07 area %
Mo2S6O2 dimer (area %) [2, 5]: 0.11 area %
TM2 (area %) [2, 5]: 0.10 area %
TM3 (area %) [2, 5]: 0.43 area %
Total impurities (area %) [2, 5]: 0.68 area %
TM2 (area %) ([2]; Initial, listed as B-3): 0.01 area %
TM3 (area %) ([2]; Initial, listed as B-3): 0.42 area %
Total impurities (area %) ([2]; Initial, listed as B-3): 0.44 area %
SSA (m^2/g) ([3]; listed as B-3): 0.38 m^2/g
Dx (10)/μm ([4]; listed as B-3): 10.5 μm
Dx (50)/μm ([4]; listed as B-3): 30.0 μm
Dx (90)/μm ([4]; listed as B-3): 54.9 μm
>100 μm (%) ([4]; listed as B-3): 0.0%
<2 μm (%) ([4]; listed as B-3): 2.6%

bis-choline tetrathiomolybdate [Batch A-2]
Estimated Crystallinity (%) ([1]; AREAcryst/AREAtotal*100, listed as A-2): 86%
Mo2S6O2 dimer (area %) [2, 6]: 0.09 area %
TM2 (area %) [2, 6]: 2.38 area %
TM3 (area %) [2, 6]: 2.78 area %
Total impurities (area %) [2, 6]: 5.54 area %
TM2 (area %) ([2]; Initial, listed as A-2): 0.29 area %
TM3 (area %) ([2]; Initial, listed as A-2): 2.04 area %
Total impurities (area %) ([2]; Initial, listed as A-2): 2.34 area %
SSA (m^2/g) ([3]; listed as A-2): 0.26 m^2/g
Dx (10)/μm ([4]; listed as A-2): 25.5 μm
Dx (50)/μm ([4]; listed as A-2): 86.6 μm
Dx (90)/μm ([4]; listed as A-2): 442.0 μm
>100 μm (%) ([4]; listed as A-2): 46.8%
<2 μm (%) ([4]; listed as A-2): 0.0%

bis-choline tetrathiomolybdate [Batch B-4]
Estimated Crystallinity (%) ([1]; AREAcryst/AREAtotal*100, listed as B-4): 93%
Mo2S6O2 dimer (area %) ([2]; Day 1, 40° C. / 75% RH, listed as B-4): 0.06 area %
Mo2S6O2 dimer (area %) ([2]; Day 2, 40° C. / 75% RH, listed as B-4): 0.23 area %
Mo2S6O2 dimer (area %) [2, 7]: 0.38 area %
TM2 (area %) [2, 7]: 0.19 area %
TM3 (area %) [2, 7]: 0.23 area %
Total impurities (area %) [2, 7]: 1.01 area %
Mo2S6O2 dimer (area %) ([2]; Initial): <0.05 area %
TM2 (area %) ([2]; Initial, listed as B-4): 0.01 area %
TM3 (area %) ([2]; Initial, listed as B-4): 0.14 area %
Total impurities (area %) ([2]; Initial, listed as B-4): 0.20 area %
SSA (m^2/g) ([3]; listed as B-4): 1.16 m^2/g
Dx (10)/μm ([4]; listed as B-4): 3.6 μm
Dx (50)/μm ([4]; listed as B-4): 12.7 μm
Dx (90)/μm ([4]; listed as B-4): 47.6 μm
>100 μm (%) ([4]; listed as B-4): 0.0%
<2 μm (%) ([4]; listed as B-4): 6.6%
